Measured values as given in ChEMBL document CHEMBL4270559, “Structural insight into the optimization of ethyl 5-hydroxybenzo[g]indol-3-carboxylates and their bioisosteric analogues as 5-LO/m-PGES-1 dual inhibitors able to suppress inflammation” (Eur J Med Chem, 2018).

Tests used:
Mus musculus [1] = assay: Anti-inflammatory activity in carrageenan-induced ICR mouse model of inflammation assessed as reduction in paw edema at 20 mg/kg, ip administered 30 mins prior to carrageenan challenge measured at 2 to 6 hrs post carrageenan challenge by plethysmometric method relative to control; type: functional; design: scale not given: the % may be the effect or the level left
Prostaglandin E synthase = target: T1, Prostaglandin E synthase (Homo sapiens, UniProt O14684); assay: Inhibition of mPGES-1 in microsomal membranes isolated from IL-1beta-stimulated human A549 cells preincubated for 15 mins followed by PGH2 addition measured after 1 mins by RP-HPLC analysis; type: cell membranes
T1 sequence (O14684 whole entry): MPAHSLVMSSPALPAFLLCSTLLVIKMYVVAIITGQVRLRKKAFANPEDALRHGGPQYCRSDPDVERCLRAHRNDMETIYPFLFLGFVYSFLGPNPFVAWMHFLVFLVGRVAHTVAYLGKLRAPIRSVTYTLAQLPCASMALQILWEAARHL

[2] = target: T2, Polyunsaturated fatty acid 5-lipoxygenase (Homo sapiens, UniProt P09917); assay: Inhibition of 5-LO in human peripheral blood neutrophils using arachidonic acid as substrate preincubated for 15 mins followed by substrate addition measured after 10 mins by RP-HPLC analysis
T2 sequence (P09917 whole entry): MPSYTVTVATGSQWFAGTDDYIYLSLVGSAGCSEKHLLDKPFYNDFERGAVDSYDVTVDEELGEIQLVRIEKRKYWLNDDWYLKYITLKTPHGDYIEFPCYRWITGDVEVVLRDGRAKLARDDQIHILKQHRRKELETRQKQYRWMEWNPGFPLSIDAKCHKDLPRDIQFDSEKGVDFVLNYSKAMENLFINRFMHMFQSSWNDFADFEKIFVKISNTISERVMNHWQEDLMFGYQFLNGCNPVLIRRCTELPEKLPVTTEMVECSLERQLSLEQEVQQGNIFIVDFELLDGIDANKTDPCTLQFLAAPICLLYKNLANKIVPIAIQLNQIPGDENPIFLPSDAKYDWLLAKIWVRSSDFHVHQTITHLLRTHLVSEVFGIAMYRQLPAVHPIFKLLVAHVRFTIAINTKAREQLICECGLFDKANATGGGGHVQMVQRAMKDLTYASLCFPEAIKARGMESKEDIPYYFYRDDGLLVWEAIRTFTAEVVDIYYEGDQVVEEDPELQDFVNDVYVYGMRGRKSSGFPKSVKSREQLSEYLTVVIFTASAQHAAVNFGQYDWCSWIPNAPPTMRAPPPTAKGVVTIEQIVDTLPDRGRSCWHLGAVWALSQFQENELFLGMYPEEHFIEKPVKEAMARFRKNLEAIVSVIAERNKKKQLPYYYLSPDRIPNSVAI

[3] = target: T2, Polyunsaturated fatty acid 5-lipoxygenase; assay: Inhibition of recombinant human 5-LO expressed in Escherichia coli BL21 using arachidonic acid as substrate preincubated for 15 mins followed by substrate addition measured after 10 mins by RP-HPLC analysis
Mus musculus [4] = assay: Anti-inflammatory activity in carrageenan-induced ICR mouse model of inflammation assessed as reduction in paw edema at 4 mg/kg, ip administered 30 mins prior to carrageenan challenge measured at 2 to 6 hrs post carrageenan challenge by plethysmometric method relative to control; type: functional; design: scale not given: the % may be the effect or the level left
[5] = target: T3, Prostaglandin E synthase (Homo sapiens) (UniProt O14684); assay: Inhibition of mPGES-1 in microsomal membranes isolated from IL-1beta-stimulated human A549 cells assessed as residual activity preincubated for 15 mins followed by PGH2 addition measured after 1 mins by RP-HPLC analysis relative to control; type: cell membranes
T3 sequence (whole entry): T1 sequence (O14684 whole entry)

Mus musculus [6] = assay: Anti-inflammatory activity in carrageenan-induced ICR mouse model of inflammation assessed as reduction in paw edema at 4 mg/kg, ip administered 30 mins prior to carrageenan challenge measured at 4 hrs post carrageenan challenge by plethysmometric method relative to control; type: functional; design: scale not given: the % may be the effect or the level left

Compound | IC50 (Prostaglandin E synthase) | IC50 [2] | IC50 [3] | Activity [5] | Activity (Mus musculus [1]) | Activity (Mus musculus [4]) | Activity (Mus musculus [6])
CC(c1cc2ccccc2s1)N(O)C(N)=O (centres undefined) [ZILEUTON] |  |  |  |  | 38.2% |  | 
CCOC(=O)c1c(Cc2ccccc2Cl)[nH]c2c1cc(O)c1ccccc12 | 960 nM |  |  |  |  |  | 
CCOC(=O)c1c(-c2ccc(Cl)cc2)[nH]c2c1cc(O)c1ccccc12 | 3400 nM |  |  |  |  |  | 
CCOC(=O)c1c(-c2ccccc2Br)oc2c1cc(O)c1ccccc12 |  | 790 nM | 160 nM |  |  |  | 
CCOC(=O)c1c(Cc2c(C)cc(C)cc2C)[nH]c2c1cc(O)c1ccccc12 | 58800 nM | 130 nM | 298 nM |  |  |  | 
CCOC(=O)c1c(-c2ccc(Cl)cc2)oc2c1cc(O)c1ccccc12 |  | 3740 nM | 130 nM |  |  |  | 
CCOC(=O)c1c(-c2cc(Br)ccc2F)oc2c1cc(O)c1ccccc12 |  | 4490 nM | 2030 nM |  |  |  | 
CCOC(=O)c1c(Cc2c(F)cccc2F)[nH]c2c1cc(O)c1ccccc12 | 4200 nM | 94 nM | 169 nM |  |  | 81% | 
CCOC(=O)c1c(-c2cc(C)cc(C)c2)[nH]c2c1cc(O)c1ccccc12 | 7060 nM | 300 nM | 120 nM |  |  |  | 
CCOC(=O)c1c(-c2ccc(Br)cc2F)oc2c1cc(O)c1ccccc12 |  | 2320 nM | 1060 nM |  |  |  | 
CCOC(=O)c1c(-c2ccc(Cl)c(Cl)c2)[nH]c2c1cc(O)c1ccccc12 | 480 nM | 130 nM | 130 nM |  |  |  | 47.3%
CCOC(=O)c1c(-c2ccc(Cl)c(Cl)c2)oc2c1cc(O)c1ccccc12 |  | 1240 nM | 1700 nM |  |  |  | 
CCOC(=O)c1c(-c2cccc(Cl)c2)oc2c1cc(O)c1ccccc12 |  | 3920 nM | 460 nM |  |  |  | 
CCOC(=O)c1c(Cc2c(Cl)cccc2Cl)[nH]c2c1cc(O)c1ccccc12 |  | 1160 nM | 782 nM | 78.1% |  |  | 
CCOC(=O)c1c(-c2ccccc2Cl)oc2c1cc(O)c1ccccc12 |  | 1860 nM | 370 nM |  |  |  | 
CCOC(=O)c1c(Cc2ccc(Cl)c(Cl)c2)[nH]c2c1cc(O)c1ccccc12 | 4200 nM | 45 nM | 54 nM |  |  | 73% | 
CCOC(=O)c1c(C)[nH]c2c1cc(O)c1ccccc12 |  | 420 nM | 480 nM |  |  |  | 
CCOC(=O)c1c(-c2ccccc2F)oc2c1cc(O)c1ccccc12 |  | 670 nM | 370 nM |  |  |  | 
CCOC(=O)c1c(-c2cccc(Br)c2)oc2c1cc(O)c1ccccc12 |  | 1640 nM | 860 nM |  |  |  | 

Further lines, with some results ahead:

IC50 (Prostaglandin E synthase) | IC50 [2] | IC50 [3] | Activity [5] | Compound | Activity (Mus musculus [1]) | Activity (Mus musculus [4]) | Activity (Mus musculus [6])
2560 nM | 120 nM | 140 nM |  | CCOC(=O)c1c(-c2cccc(C)c2)[nH]c2c1cc(O)c1ccccc12 |  |  | 
8600 nM | 210 nM | 190 nM |  | CCOC(=O)c1c(-c2ccccc2OC)[nH]c2c1cc(O)c1ccccc12 |  |  | 
 | 150 nM | 100 nM | 50.6% | CCOC(=O)c1c(-c2ccccc2F)[nH]c2c1cc(O)c1ccccc12 |  |  | 
1190 nM | 210 nM | 130 nM |  | CCOC(=O)c1c(-c2cccc(Br)c2)[nH]c2c1cc(O)c1ccccc12 |  |  | 
 | 1360 nM | 220 nM |  | CCOC(=O)c1c(-c2ccccc2OC)oc2c1cc(O)c1ccccc12 |  |  | 
2130 nM | 230 nM | 110 nM |  | CCOC(=O)c1c(-c2cc(Br)ccc2F)[nH]c2c1cc(O)c1ccccc12 |  |  | 73.95%
2540 nM | 200 nM | 160 nM |  | CCOC(=O)c1c(-c2ccccc2Br)[nH]c2c1cc(O)c1ccccc12 |  |  | 
3430 nM | 860 nM | 270 nM |  | CCOC(=O)c1c(-c2ccc(Br)cc2F)[nH]c2c1cc(O)c1ccccc12 |  |  | 69.35%
 | 240 nM | 130 nM |  | CCOC(=O)c1c(-c2ccccc2Cl)[nH]c2c1cc(O)c1ccccc12 |  |  | 
12700 nM | 420 nM | 110 nM |  | CCOC(=O)c1c(-c2ccccc2C)[nH]c2c1cc(O)c1ccccc12 |  |  | 
